Results: patent US7700786B2, “Pyrazole derivative, intermediate therefor, processes for producing these, and herbicide containing these as active ingredient” (Sagami Chemical Research Center, priority 2001, dated 2010)

How the values were obtained:
[1] = test system: Abutilon theophrasti; experiment: Herbicidal efficacy test by foliar treatment after germination under upland field condition; assay type: in vivo; conditions: Dc: Digitaria ciliaris (table footnote; method names Abutilon theophrasti), dose 1 kg/ha, rated 1 to 5 on the 14th day after treatment
[2] = test system: Amaranthus viridis; experiment: as above; assay type: in vivo; conditions: dose 1 kg/ha, rated 1 to 5 on the 14th day after treatment; note: key: 1 shows no influence; 5 shows complete die
Description: (§1) A vat having an area of 5×10 cm^2 and a depth of 5 cm was filled with upland field soil, and seeds of Chenopodium album, Echinochloa crus-galli, Amaranthus viridis and Abutilon theophrasti were sown thereon and covered with soil by a depth of 0.5 cm. Water was sprayed as required to grow them for 14 days.

[3] = test system: Chenopodium album; experiment: as above; assay type: in vivo; conditions: dose 1 kg/ha, rated 1 to 5 on the 14th day after treatment; note: key: 1 shows no influence; 5 shows complete die
Description: as §1

[4] = test system: Echinochloa crus-galli; experiment: as above; assay type: in vivo; conditions: dose 1 kg/ha, rated 1 to 5 on the 14th day after treatment
Description: as §1

[5] = test system: Scirpus juncoides; experiment: Herbicidal efficacy test by pre-emergence treatment under submergence condition; assay type: in vivo; conditions: 15th day after treatment, ratings of 1 to 5
Description: (§2) A 1/10,000-are pot was filled with paddy field soil, and, after plowing, seeds of Echinochloa oryzicola, Cyperus difformis, Monochoria vaginalis, Scirpus juncoides, Eleocharis acicularis and other annual broadleaf weeds such as Lindernia procumbens, Rotala indica and Elatine triandra were sown. Rice (oryza sativa) seedlings (cultiver “Koshihikari”) at a 2.5-leaf stage were transplanted and kept under a submergence condition. After one day, the wettable powder or emulsifiable concentrate of the compound of the present invention, prepared according to Preparation Example, was diluted and dropped on a water surface at a predetermined dose.

[6] = test system: Echinochloa oryzicola; experiment: as above; assay type: in vivo; conditions: 15th day after treatment, ratings of 1 to 5
[7] = test system: annual broadleaf weeds such as Lindernia procumbens, Rotala indica and Elatine triandra; experiment: as above; assay type: in vivo; conditions: 15th day after treatment, ratings of 1 to 5
Description: as §2

[8] = test system: Eleocharis acicularis; experiment: as above; assay type: in vivo; conditions: 15th day after treatment, ratings of 1 to 5; note: key: 1 shows no influence; 5 shows complete die
Description: as §2

[9] = test system: Cyperus difformis; experiment: as above; assay type: in vivo; conditions: 15th day after treatment, ratings of 1 to 5; note: key: 1 shows no influence; 5 shows complete die
Description: as §2

[10] = test system: Monochoria vaginalis; experiment: as above; assay type: in vivo; conditions: 15th day after treatment, ratings of 1 to 5; note: key: 1 shows no influence; 5 shows complete die
Description: as §2

CCNC(=O)n1nc(Oc2ccc(C(F)(F)F)cc2[N+](=O)[O-])cc1C [Compound 3-67]
Herbicidal activity Dc [1]: 5 | Herbicidal activity Av [2]: 5 | Herbicidal activity Ca [3]: 5 | Herbicidal activity Ec [4]: 4.9

Cc1cc(Oc2c(Cl)cc(C(F)(F)F)cc2Cl)nn1C(=O)NCCCl [Compound 3-143]
Herbicidal efficacy Sj ([5]; dose 0.5 kg/ha): 4 | Herbicidal efficacy Sj ([5]; dose 1 kg/ha): 5 | Herbicidal efficacy Eo ([6]; dose 0.5 kg/ha): 5 | Herbicidal efficacy Eo ([6]; dose 1 kg/ha): 5 | Herbicidal efficacy Blw ([7]; dose 0.5 kg/ha): 5 | Herbicidal efficacy Blw ([7]; dose 1 kg/ha): 5 | Herbicidal efficacy Ea ([8]; dose 0.5 kg/ha): 5 | Herbicidal efficacy Ea ([8]; dose 1 kg/ha): 5 | Herbicidal efficacy Cd ([9]; dose 0.5 kg/ha): 5 | Herbicidal efficacy Cd ([9]; dose 1 kg/ha): 5 | Herbicidal efficacy Mv ([10]; dose 0.5 kg/ha): 5 | Herbicidal efficacy Mv ([10]; dose 1 kg/ha): 5

CNC(=O)n1nc(Oc2ncc(C(F)(F)F)cc2Cl)cc1C [Compound 4-6, N-methyl-3-(3-chloro-5-trifluoromethylpyridin-2-yloxy)-5-methylpyrazole-1-carboxamide]
Herbicidal efficacy Sj ([5]; dose 0.5 kg/ha): 4.6 | Herbicidal efficacy Sj ([5]; dose 1 kg/ha): 5 | Herbicidal efficacy Eo ([6]; dose 0.5 kg/ha): 4.8 | Herbicidal efficacy Eo ([6]; dose 1 kg/ha): 5 | Herbicidal efficacy Blw ([7]; dose 0.5 kg/ha): 5 | Herbicidal efficacy Blw ([7]; dose 1 kg/ha): 5 | Herbicidal efficacy Ea ([8]; dose 0.5 kg/ha): 5 | Herbicidal efficacy Ea ([8]; dose 1 kg/ha): 5 | Herbicidal efficacy Cd ([9]; dose 0.5 kg/ha): 5 | Herbicidal efficacy Cd ([9]; dose 1 kg/ha): 5 | Herbicidal efficacy Mv ([10]; dose 0.5 kg/ha): 5 | Herbicidal efficacy Mv ([10]; dose 1 kg/ha): 5

CCNC(=O)n1nc(Oc2ncc(C(F)(F)F)cc2Cl)cc1C [Compound 4-16, N-ethyl-3-(3-chloro-5-trifluoromethylpyridin-2-yloxy)-5-methylpyrazole-1-carboxamide]
Herbicidal efficacy Sj ([5]; dose 0.5 kg/ha): 4.8 | Herbicidal efficacy Sj ([5]; dose 1 kg/ha): 5 | Herbicidal efficacy Eo ([6]; dose 0.5 kg/ha): 5 | Herbicidal efficacy Eo ([6]; dose 1 kg/ha): 5 | Herbicidal efficacy Blw ([7]; dose 0.5 kg/ha): 5 | Herbicidal efficacy Blw ([7]; dose 1 kg/ha): 5 | Herbicidal efficacy Ea ([8]; dose 0.5 kg/ha): 5 | Herbicidal efficacy Ea ([8]; dose 1 kg/ha): 5 | Herbicidal efficacy Cd ([9]; dose 0.5 kg/ha): 5 | Herbicidal efficacy Cd ([9]; dose 1 kg/ha): 5 | Herbicidal efficacy Mv ([10]; dose 0.5 kg/ha): 5 | Herbicidal efficacy Mv ([10]; dose 1 kg/ha): 5

CCNC(=S)n1nc(Oc2ncc(C(F)(F)F)cc2Cl)cc1C [Compound 4-17, N-ethyl-3-(3-chloro-5-trifluoromethylpyridin-2-yloxy)-5-methylpyrazole-1-carbothioamide]
Herbicidal efficacy Sj ([5]; dose 0.5 kg/ha): 4.5 | Herbicidal efficacy Sj ([5]; dose 1 kg/ha): 4.8 | Herbicidal efficacy Eo ([6]; dose 0.5 kg/ha): 5 | Herbicidal efficacy Eo ([6]; dose 1 kg/ha): 5 | Herbicidal efficacy Blw ([7]; dose 0.5 kg/ha): 4.8 | Herbicidal efficacy Blw ([7]; dose 1 kg/ha): 5 | Herbicidal efficacy Ea ([8]; dose 0.5 kg/ha): 5 | Herbicidal efficacy Ea ([8]; dose 1 kg/ha): 5 | Herbicidal efficacy Cd ([9]; dose 0.5 kg/ha): 5 | Herbicidal efficacy Cd ([9]; dose 1 kg/ha): 5 | Herbicidal efficacy Mv ([10]; dose 0.5 kg/ha): 5 | Herbicidal efficacy Mv ([10]; dose 1 kg/ha): 5

CCCNC(=O)n1nc(Oc2ncc(C(F)(F)F)cc2Cl)cc1C [Compound 4-23, N-propyl-3-(3-chloro-5-trifluoromethylpyridin-2-yloxy)-5-methylpyrazole-1-carboxamide]
Herbicidal efficacy Sj ([5]; dose 0.5 kg/ha): 4.9 | Herbicidal efficacy Sj ([5]; dose 1 kg/ha): 5 | Herbicidal efficacy Eo ([6]; dose 0.5 kg/ha): 5 | Herbicidal efficacy Eo ([6]; dose 1 kg/ha): 5 | Herbicidal efficacy Blw ([7]; dose 0.5 kg/ha): 4.8 | Herbicidal efficacy Blw ([7]; dose 1 kg/ha): 5 | Herbicidal efficacy Ea ([8]; dose 0.5 kg/ha): 5 | Herbicidal efficacy Ea ([8]; dose 1 kg/ha): 5 | Herbicidal efficacy Cd ([9]; dose 0.5 kg/ha): 5 | Herbicidal efficacy Cd ([9]; dose 1 kg/ha): 5 | Herbicidal efficacy Mv ([10]; dose 0.5 kg/ha): 5 | Herbicidal efficacy Mv ([10]; dose 1 kg/ha): 5

CCNC(=O)n1nc(Oc2cc(OCC)ccc2[N+](=O)[O-])cc1C [Example 99, N-ethyl-3-(5-ethoxy-2-nitrophenyloxy)-5-methylpyrazole-1-carboxamide]
melting point: 73 to 75 °C

CCNC(=O)n1nc(Oc2ccc(N)c(C(F)(F)F)c2)cc1C [Example 100, N-ethyl-3-(4-amino-3-trifluoromethylphenyloxy)-5-methylpyrazole-1-carboxamide]
melting point: 102 to 104 °C

CCNC(=O)n1nc(Oc2c(F)cc(C(F)(F)F)cc2F)cc1C [Example 124, N-ethyl-3-(2,6-difluoro-4-trifluoromethylphenyloxy)-5-methylpyrazole-1-carboxamide]
melting point: 102 to 104 °C

CCNC(=O)n1nc(Oc2c(Cl)cc(C(F)(F)F)cc2[N+](=O)[O-])cc1C [Example 126, N-ethyl-3-(2-chloro-6-nitro-4-trifluoromethylphenyloxy)-5-methylpyrazole-1-carboxamide]
melting point: 98 to 99 °C

CCNC(=O)n1nc(Oc2c(Cl)cc(C(F)(F)F)cc2Cl)cc1CC [Example 163, N-ethyl-3-(2,6-dichloro-4-trifluoromethylphenyloxy)-5-ethylpyrazole-1-carboxamide]
melting point: 86 to 89 °C

CCNC(=O)n1nc(Oc2c(Cl)cc(C(F)(F)F)cc2Cl)cc1C(=O)OC [Example 175, methyl 3-(2,6-dichloro-4-trifluoromethylphenyloxy)-1 (N-ethylcarbamoyl)pyrazole-5-carboxylate]
melting point: 88 to 90 °C

CCNC(=O)n1nc(Oc2c(Cl)cc(C(F)(F)F)cc2Cl)cc1-c1ccc(Cl)cc1 [Example 176, N-ethyl-5-(4-chlorophenyl)-3-(2,6-dichloro-4-trifluoromethylphenyloxy)pyrazole-1-carboxamide]
melting point: 88 to 89 °C

COCNC(=S)n1nc(Oc2ccc(C#N)cc2C(F)(F)F)cc1C [Example 177, N-methoxymethyl-3-(4-cyano-2-trifluoromethylphenyloxy)-5-methylpyrazole-1-carbothioamide]
melting point: 89 to 90 °C

COCNC(=S)n1nc(Oc2c(Cl)cc(C(F)(F)F)cc2Cl)cc1C [Example 178, N-methoxymethyl-3-(2,6-dichloro-4-trifluoromethylphenyloxy)-5-methylpyrazole-1-carbothioamide]
melting point: 95 to 96 °C

Cc1cc(Oc2cccc(C(F)(F)F)c2)nn1C(=O)NCC1CCCO1 (centres unmarked) [Example 199, N-tetrahydrofurfuryl-5-methyl-3-(3-trifluoromethylphenyloxy)pyrazole-1-carboxamide]
melting point: 101 to 102 °C

Cc1cc(Oc2c(Cl)cc(C(F)(F)F)cc2Cl)nn1C(N)=O [Example 223, 3-(2,6-dichloro-4-trifluoromethylphenyloxy)-5-methylpyrazole-1-carboxamide]
melting point: 152 to 154 °C

Cc1cc(Oc2c(Cl)cc(C(F)(F)F)cc2Cl)nn1C(=O)NCC=O [Example 229, N-formylmethyl-3-(2,6-dichloro-4-trifluoromethylphenyloxy)-5-methylpyrazole-1-carboxamide]
melting point: 111 to 113 °C

CC(C)N(C(=O)n1nc(Oc2ccc(C(F)(F)F)cc2[N+](=O)[O-])cc1C(F)(F)F)C(C)C [Example 241, N,N-Diisopropyl-3-(2-nitro-4-trifluoromethylphenyloxy)-5-trifluoromethylpyrazole-1-carboxamide]
melting point: 118 to 120 °C

CNC(=O)n1nc(Oc2ccc(C(F)(F)F)cc2N)cc1C [Example 242, N-methyl-3-(2-amino-4-trifluoromethylphenyloxy)-5-methylpyrazole-1-carboxamide]
melting point: 93 to 94 °C

Cc1c(Cl)c(Oc2ccc(C(F)(F)F)cc2[N+](=O)[O-])nn1C(=O)NC(C)C [Example 243, N-isopropyl-4-chloro-5-methyl-3-(2-nitro-4-trifluoromethylphenyloxy)pyrazole-1-carboxamide]
melting point: 89 to 91 °C

CNC(=O)n1nc(Oc2ccc([N+](=O)[O-])cc2C(F)(F)F)c(Cl)c1C [Example 245, N-methyl-4-chloro-5-methyl-3-(4-nitro-2-trifluoromethylphenyloxy)pyrazole-1-carboxamide]
melting point: 157 to 158 °C

CCCCCCNC(=O)n1nc(Oc2c(Cl)cc(C(F)(F)F)cc2Cl)c(Cl)c1C [Example 246, N-hexyl-4-chloro-3-(2,6-dichloro-4-trifluoromethylphenyloxy)-5-methylpyrazole-1-carboxamide]
melting point: 86 to 88 °C

Cc1c(Cl)c(Oc2c(Cl)cc(C(F)(F)F)cc2Cl)nn1C(=O)NC(C)C [Example 249, N-isopropyl-4-chloro-3-(2,6-dichloro-4-trifluoromethylphenyloxy)-5-methylpyrazole-1-carboxamide]
melting point: 109 to 111 °C

CCCNC(=O)n1nc(Oc2c(Cl)cc(C(F)(F)F)cc2Cl)cc1C(Cl)(Cl)Cl [Example 250, N-propyl-3-(2,6-dichloro-4-trifluoromethylphenyloxy)-5-trichloromethylpyrazole-1-carboxamide]
melting point: 89 to 91 °C
